Data on two molecules can be found in PubChem BioAssay AID1259407 (Chemical Carcinogenesis Research Information System (CCRIS), 2018).

Molecules are shown by their SMILES. Calls of active or inactive are those of the source. How the calls were made is not given here.

For this data set, the system named is CCRIS mutagenicity, Ames/micronucleus/aberration tests. Put plainly: CCRIS mutagenicity studies.

With `CCN(CCCl)CCCNc1c2ccc(Cl)cc2nc2ccc(OC)cc12`, the mutagenic call reads like this: (Test System: AMES SALMONELLA TYPHIMURIUM, Strain/Indicator: TA98, Metabolic Activation: NONE, Method: STANDARD PLATE) “active; positive”; (Test System: AMES SALMONELLA TYPHIMURIUM, Strain/Indicator: TA100, Metabolic Activation: NONE, Method: STANDARD PLATE) “active; positive”; (Test System: AMES SALMONELLA TYPHIMURIUM, Strain/Indicator: TA1535, Metabolic Activation: NONE, Method: STANDARD PLATE) “inactive; negative”; (Test System: AMES SALMONELLA TYPHIMURIUM, Strain/Indicator: TA1536, Metabolic Activation: NONE, Method: STANDARD PLATE) “active; positive”; (Test System: AMES SALMONELLA TYPHIMURIUM, Strain/Indicator: TA1537, Metabolic Activation: NONE, Method: STANDARD PLATE) “active; positive”; (Test System: AMES SALMONELLA TYPHIMURIUM, Strain/Indicator: TA1538, Metabolic Activation: NONE, Method: STANDARD PLATE) “active; positive”. Besides, the mutagenic call was “active; positive” (Test System: CHINESE HAMSTER OVARY, Strain/Indicator: CHO-K1-BH4 (HGPRT)/6-THIOGUANINE, Metabolic Activation: NONE, Method: SUSPENSION/PLATE); “active; positive” (Test System: CHINESE HAMSTER OVARY, Strain/Indicator: CHO-K1-BH4 (HGPRT), Metabolic Activation: NONE, Method: MONOLAYER ASSAY); “active; positive” (Test System: CHINESE HAMSTER OVARY, Strain/Indicator: CHO-K1-BH4 (HGPRT), Metabolic Activation: NONE, Method: SUSPENSION/PLATE); “active; positive” (Test System: CHINESE HAMSTER V-79, Strain/Indicator: V-79/6-THIOGUANINE, Metabolic Activation: NONE, Method: FLASK ASSAY); “active; positive” (Test System: CHINESE HAMSTER V-79, Strain/Indicator: V-79/8-AZAGUANINE, Metabolic Activation: NONE, Method: STANDARD PLATE); “active; positive” (Test System: CHO/HGPRT, Strain/Indicator: CHO-K1-BH4, Metabolic Activation: NONE, Method: STANDARD PLATE). The mutagenic call is “active; positive” (Test System: MOUSE LYMPHOMA, Strain/Indicator: L5178Y (TK+/TK-), Metabolic Activation: NONE, Method: SUSPENSION/PLATE); “active; positive” (Test System: Mouse lymphoma, Strain/Indicator: L5178Y (tk+/tk-), Metabolic Activation: None, Method: Suspension/plate); “inconclusive (previous evaluation equivocal)” (Test System: Mouse lymphoma, Strain/Indicator: L5178Y (tk+/tk-), Metabolic Activation: Rat, Liver, S-9, Aroclor 1254, Method: Suspension/plate).

Consider `CCCNNCCC`, for which the mutagenic call (Test System: AMES SALMONELLA TYPHIMURIUM, Strain/Indicator: TA100, Metabolic Activation: NONE, Method: PREINCUBATION (11 HR GROWTH PERIOD FOR BACTERIA)) is “active; positive”; the mutagenic call (Test System: AMES SALMONELLA TYPHIMURIUM, Strain/Indicator: TA100, Metabolic Activation: RAT, LIVER, S-9, PCB, Method: PREINCUBATION (11 HR GROWTH PERIOD FOR BACTERIA)) is “inactive; negative”; the mutagenic call (Test System: AMES SALMONELLA TYPHIMURIUM, Strain/Indicator: TA102, Metabolic Activation: NONE, Method: PREINCUBATION (5 OR 7 HR GROWTH PERIOD FOR BACTERIA)) is “active; positive”; the mutagenic call (Test System: AMES SALMONELLA TYPHIMURIUM, Strain/Indicator: TA102, Metabolic Activation: RAT, LIVER, S-9, PCB, Method: PREINCUBATION (5 OR 7 HR GROWTH PERIOD FOR BACTERIA)) was “active; positive”.
